Source: USRE38132E1, “Phenylpyrrolidines, phenylimidazolidines,3-phenyl-1,3-oxizolidines and 3-phenyl-1,3-thiazolidines and their use in the treatment of inflammatory disease” (Boehringer Ingelheim Pharmaceuticals, Inc., priority 1997, dated 2003)
pIC50, pKd: −log10 of the molar value.

Columns and labels:
[1] = test system: cell bound form of LFA-1 (CD18, CD11a) with ICAM-1, SKW3 cells; assay: Inhibition of SKW3 cell binding to ICAM-1 (PMA-stimulated); assay type: cell-based, human; conditions: Homo sapiens, SKW3, values marked c: no inhibition observed up to highest dose; read-out: Assay to Detect SKW3 Cells Binding to ICAM IC50
Outline: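 Compound-treated, PMA-stimulated human T-cell line SKW3 (50 μg/mL PMA final) allowed to adhere for 2 h at 37° C to wells coated with sICAM-1 at 40 μg/mL or fibronectin at 100 μg/mL. After gentle RPMI wash, 50% inhibition concentration or range reported in μM.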

[2] = test system: human MLR, peripheral blood mononuclear cells; assay: Inhibition of the mixed lymphocyte reaction (MLR), tritiated thymidine uptake; assay type: cell-based; design: key: Data are reported as “+” or “−” at a given concentration (in μM); Data are reported as “+” or “−” at a given concentration (in μM)
Procedure: Assay to Determine Inhibition the Mixed Lymphocyte Reaction
As discussed above, ICAM-1 is necessary for effective cellular interactions during an immune response mediated through LFA-1-dependent cell adhesion. When lymphocytes from two unrelated individuals are cultured together, blast transformation and cell proliferation of the lymphocytes are observed. This response is known as a mixed lymphocyte reaction (MLR) and is analogous to the response of lymphocytes to the 10 addition of antigens or mitogens (Immunology: The Science of Self-Nonself Discrimination; Klein, J., Ed.; John Wiley & Sons: NY, 1982, pp 453-458).
This assay protocol is used to determine the effect of a test compound on the human MLR.
Description of Assay Protocol:
Peripheral blood is obtained from normal, healthy donors by venipuncture. The blood is collected in heparinized tubes and diluted 1:1 at room temperature with Puck's G (GIBCO) balanced salt solution (BSS). The blood mixture (20 mL) is layered over 15 mL of a Ficoll/Hypaque density gradient (Pharmacia, density=1.078, room temperature) and centrifuged at 1000·g for 20 minutes. The interface is then collected and washed 3 times in Puck's G. The cells are counted on a hemocytometer and resuspended in RPMI 1640 culture medium (GIBCO) containing 0.5% of gentamicin, 1 mM L-glutamine (GICO) and 5% heat inactivated (56° C., 30 min) human AB sera (Flow Laboratories) (hereafter referred to as RPMI-culture medium).
Stimulator cells (cells that have been treated with irradiation so that they are unable to proliferate) from a separate donor are cultured with the responder cells at the same concentration. Test compound is added to wells at various concentrations. The total volume per culture is 0.2 mL. Controls include compound vehicle alone (DMSO), responder cells alone, and stimulator cells alone. The culture plates are incubated at 37° C. in a 5% CO2-humidified air atmosphere for 5 days.
The wells are pulsed with 0.5 μCi of tritiated thymidine (^3HT) (New England Nuclear) for the last 18 h of culture. In some cases a two-way MLR can be performed. The protocol is the same except that the second donor's cells are not inactivated by irradiation.
The cells are harvested onto glass fiber filters using an automated multiple sample harvester (Skatron, Norway), and rinsed with water and methanol. The filters are oven dried and counted in Aquasol in a Beckman (LS-3801) liquid scintillation counter.
Data are reported as “+” or “−” at a given concentration (in μM).

[3] = target: T1, interaction of ICAM-1 with the Leukointegrin CD18/CD11a (LFA-1) (Homo sapiens, UniProt P05107+P20701); assay: Assay to determine inhibition of LFA-1 binding to ICAM-1 (immunopurified LFA-1 on plate-bound sICAM-1, ELISA readout); conditions: values marked e approximated from incomplete dose-response curve
T1 construct: endogenous in cells; sICAM-1: made in house, secreted from transfected CHO DUX cells
T1 sequence (P20701 26-1170): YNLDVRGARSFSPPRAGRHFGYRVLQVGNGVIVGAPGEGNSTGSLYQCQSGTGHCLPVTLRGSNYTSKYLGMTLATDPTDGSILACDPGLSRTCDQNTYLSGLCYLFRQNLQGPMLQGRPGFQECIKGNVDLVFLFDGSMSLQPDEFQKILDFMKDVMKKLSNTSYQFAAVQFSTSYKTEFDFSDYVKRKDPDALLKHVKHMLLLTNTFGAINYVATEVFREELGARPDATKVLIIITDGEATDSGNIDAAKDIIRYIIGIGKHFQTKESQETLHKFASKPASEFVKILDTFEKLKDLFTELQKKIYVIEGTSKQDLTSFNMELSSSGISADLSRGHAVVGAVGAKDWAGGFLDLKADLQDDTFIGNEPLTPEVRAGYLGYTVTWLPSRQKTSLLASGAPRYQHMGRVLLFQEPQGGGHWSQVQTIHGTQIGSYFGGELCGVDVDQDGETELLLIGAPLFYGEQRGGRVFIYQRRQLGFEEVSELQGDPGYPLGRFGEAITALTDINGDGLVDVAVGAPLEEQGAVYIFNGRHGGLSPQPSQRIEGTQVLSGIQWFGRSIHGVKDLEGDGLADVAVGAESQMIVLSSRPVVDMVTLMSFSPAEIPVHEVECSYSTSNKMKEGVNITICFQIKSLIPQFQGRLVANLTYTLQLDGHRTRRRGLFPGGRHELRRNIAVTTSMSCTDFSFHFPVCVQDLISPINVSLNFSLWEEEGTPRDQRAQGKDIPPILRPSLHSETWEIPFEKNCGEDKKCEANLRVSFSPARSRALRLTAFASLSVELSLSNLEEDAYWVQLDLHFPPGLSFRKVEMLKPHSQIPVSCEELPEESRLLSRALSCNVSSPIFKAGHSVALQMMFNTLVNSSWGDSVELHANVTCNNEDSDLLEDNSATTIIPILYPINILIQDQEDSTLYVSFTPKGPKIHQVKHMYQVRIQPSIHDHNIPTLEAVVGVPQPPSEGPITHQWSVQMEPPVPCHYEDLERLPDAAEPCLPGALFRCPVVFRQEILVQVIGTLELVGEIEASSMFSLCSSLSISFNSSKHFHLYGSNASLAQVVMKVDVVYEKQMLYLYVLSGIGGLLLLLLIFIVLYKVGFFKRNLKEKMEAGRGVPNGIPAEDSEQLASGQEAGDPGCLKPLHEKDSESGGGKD
T1 sequence (P05107 23-769): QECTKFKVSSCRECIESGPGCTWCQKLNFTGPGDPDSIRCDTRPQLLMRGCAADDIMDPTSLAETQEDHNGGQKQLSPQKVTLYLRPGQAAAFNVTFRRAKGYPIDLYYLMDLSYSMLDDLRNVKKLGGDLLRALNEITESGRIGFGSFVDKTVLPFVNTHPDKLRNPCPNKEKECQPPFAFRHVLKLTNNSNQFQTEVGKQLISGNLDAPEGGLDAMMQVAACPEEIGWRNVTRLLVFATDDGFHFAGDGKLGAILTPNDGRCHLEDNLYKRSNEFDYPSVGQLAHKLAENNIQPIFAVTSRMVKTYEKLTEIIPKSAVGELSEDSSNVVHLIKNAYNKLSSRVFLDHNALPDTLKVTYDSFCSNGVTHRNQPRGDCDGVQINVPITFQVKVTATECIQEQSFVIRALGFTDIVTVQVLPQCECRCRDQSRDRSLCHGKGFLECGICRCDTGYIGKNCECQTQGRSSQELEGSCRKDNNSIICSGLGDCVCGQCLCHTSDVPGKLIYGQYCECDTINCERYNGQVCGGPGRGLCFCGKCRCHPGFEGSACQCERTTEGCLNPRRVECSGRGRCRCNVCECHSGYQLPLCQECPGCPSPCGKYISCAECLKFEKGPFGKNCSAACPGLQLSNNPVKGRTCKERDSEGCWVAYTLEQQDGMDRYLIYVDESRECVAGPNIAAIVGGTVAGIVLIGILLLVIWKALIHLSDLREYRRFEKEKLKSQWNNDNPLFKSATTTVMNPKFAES

SMILES | pIC50 [1] | Mixed Lymphocyte Reaction MLR +/− ([2]; at 50 μM) | pKd [3] | Mixed Lymphocyte Reaction MLR +/− ([2]; at 25 μM)
C[C@]1(Cc2ccc(Br)cc2)NC(=O)N(c2cc(Cl)cc(Cl)c2)C1=O [Example 29] | 5.10 | +(50) | – | –
CC(=O)N1C(=O)N(c2cc(Cl)cc(Cl)c2)C(=O)[C@@]1(C)Cc1ccc(Br)cc1 [Example 102] | 4.30 to 4.60 | – | 7.22 | +(25)
